Earlier results, collected in paper PMC2217462 (The Journal of General Physiology, 2004).

Assays:
[1] = tested on: Kv2.1 channel, basic substitutions at E277; settings: substitution of basic residues at E277 of Kv2.1; ref Li-Smerin and Swartz, 2000
[2] = tested on: Kv2.1 channel, mutations at F274; settings: mutations at F274 of Kv2.1; ref Li-Smerin and Swartz, 2000

For hanatoxin, the “fold increase in hanatoxin Kd” value [1] is listed as ≤ 125 fold and the “fold increase in hanatoxin Kd” value [2] is listed as ≤ 500 fold.
